Literature values, collected in patent US6485659B1, “Electrical apparatus with dielectric fluid blend of polyalphaolefins and polyol esters or triglycerides” (priority 1995, dated 2002).
Read-outs that look alike come from different tables or passages of the source.

Experiments:
rats [1] = conditions: rat, in vivo
rats [2] = conditions: for chronic toxicity findings: rat, in vivo, po
[3] = within 7 days; Nippon

Q: Which results are given for phenyl-ortho-tolyl-ethane [POXE]?
A: LD50 in rats (rats [1]): 2.3 ml/kg (Dielectrol III, Saperstein and Faeder article); chronic toxicity findings (rats [2]): showed lower weight gain, and liver/kidney enlargement (Dielectrol - Saperstein and Faeder.); chronic toxicity findings (rats [2]; 146 mg/kg/day): <146 mg/kg/day showed little to no effects. (Nippon Oil/Saperstein and Faeder); mortality (rats [2]; rats, oral, 0.58 ml/kg/day for 1 month, Dielectrol, Saperstein and Faeder): In rats, 0.58 ml/kg/day for 1 month yielded 50% mortality. 0.146 ml/kg/day for 3-6 months; biodegradation [3]: 100% biodegradation within 7 days (Nippon)
